The subject of data set [1] is lymph node metastases of head and neck squamous cell carcinoma. Briefly: ACE-PET imaging of metastases. Format: in vivo, human. The protocol: (§1) None of the patients suffered from diabetes. […] All patients participating in the study provided informed consent.
(§2) Six patients were studied with dedicated PET and four patients were investigated with PET/CT. A 32 minutes dynamic emission scan was performed immediately after intravenous injection of 10 MBq/kg body weight ACE. The scan time was 12×5s, 6×10s, 4×30s, 4×60s, 2×120s and 4×300s. Frame 30 (17-22 minutes after injection) generally provided the best image quality with highest tumor to background ratio and was therefore chosen for subsequent data analysis.
(§3) Isoactivity pixel value=(MPVtumor+APVbackground)×50%

In another data set the test system is salivary glands. Briefly: ACE-PET physiological uptake in normal tissue. Also noted: species or system human. Particulars: in vivo. The protocol:
as §2

In data set [2] the test system is primary tumors of head and neck squamous cell carcinoma. Description: ACE-PET imaging of primary tumors. Format: in vivo, human. As to the method:
as §1, §2, §3

The subject of data set [3] is lymph node metastases of head and neck squamous cell carcinoma. As to conditions: 21 metastatic lesions. The protocol:
(§4) Ten consecutive patients (median age 56, range 18-77 years), where of eight males and two females with histologically confirmed squamous cell carcinoma of the head and neck, were included in the study. None of the patients suffered from diabetes. […] Conventional staging of the tumors was performed by CT (n=9), MRI (n=1), histopathology and clinical examination. Histological confirmation was obtained by guided biopsies in all the primary tumors and most metastatic sites. […] All patients participating in the study provided informed consent. The study was accepted by the ethical committee of the participating hospital.
(§5) In all patients, both FDG-PET and ACE-PET were performed before the radiotherapy treatment. ACE and FDG-PET scans were performed on the same or consecutive day, except for one patient where the two types of PET scanning were done five days apart. PET studies were carried out with a dedicated PET scanner (Siemens ECAT HR^+, Knoxville, Tenn., USA) or with a PET/CT (GE Discovery S T, Milwaukee, Wis., USA). All patients were normoglycemic and were fasted at least 6 hours before tracer injection.
(§6) Whole-body scanning was performed one hour after intravenous injection of 5 MBq/kg body weight FDG. Six patients were examined by PET/CT and four patients were studied by PET alone. The patients were instructed to remain recumbent and avoid voicing and other uses of neck muscles during the uptake period.
(§7) PET images were co-registered with the CT or MRI images in all patients by a normalized mutual information procedure supported by manual correction using Hermes Multimodality™ software (Nuclear Diagnostics, Stockholm, Sweden). FDG-PET and ACE-PET images were analyzed both qualitatively and quantitatively, using Hermes Volume Display™ version V2β. In qualitative analysis, PET images were interpreted visually by two nuclear medicine physicians and any disagreement was resolved by consensus. The tumor uptake of FDG and ACE was graded into negligible, mild, moderate and intensive compared to the contra-lateral or surrounding tissues. An abnormal uptake equal to or exceeding mild was considered positive. In quantitative analysis, the mean standardized uptake value (SUV) and tumor volumes delineated by ACE and FDG-PET were evaluated. SUV was calculated as mean radioactivity concentration in the volumes (Bq/cc) divided by injected dose (Bq) per kilogram body weight. […]
(§8) Each tumor volume in FDG-PET and ACE-PET was delineated automatically by tracing an isoactivity pixel value set to 50% threshold of the maximum radioactivity corrected for background. The background was measured from a separately drawn region of interest (ROI) adjacent but at safe distance from the tumor. The isoactivity pixel value of each volume was calculated as: […]

Data set [4] concerns primary tumors of head and neck squamous cell carcinoma. As to conditions: ten patients. As to the method:
as §4, §5, §6, §7, §8

We go through two compounds from patent US20100258138A1, “RADIOLABELED 1-ACETATE PET IMAGING FOR RA[…] HEAD AND NECK CANCER” (priority 2006, published 2010).

The structures appear in SMILES notation. Where “and” joins values, the source holds several entries; their conditions need not be identical. Identical values can stand only once.

Regarding `C[11C](=O)O` [ACE, ^11C-acetate], the “ACE SUV (mean±SD)” value in data set [1] (21 metastatic lesions) is 4.0±1.3. Besides, the “range of ACE SUV” value was 2.4-6.2 in data set [1] (21 metastatic lesions) and 2.5-10.6 in data set [2] (primary tumors, ten patients). For the same compound, the “ACE-PET SUV” value in data set [1] (individual metastasis (one line per lesion), 10 MBq/kg i.v., frame 17-22 min) was 3.5 and 5.9 and 4.7 and 5.1 and 3.1 and 2.9 and 4.5 and 3.9 and 4.6 and 5.8 and 3.0 and 2.8 and 2.6 and 3.7 and 6.2 and 2.4 and 2.7; in data set [2] (primary tumor, individual patient (one line per patient), 10 MBq/kg i.v., frame 17-22 min after injection), 3.7 and 3.8 and 2.7 and 5.7 and 10.6 and 4.9 and 3.9 and 9.2 and 2.5 and 6.0. For the same compound, the “ACE-PET Visual” value is “+++ (6×) and ++ (9×) and − and + (5×)” in data set [1] (individual metastasis, visual grading of uptake); “+ (2×) and +++ (4×) and ++ (4×)” in data set [2] (primary tumor, individual patient, visual grading of uptake vs contra-lateral or surrounding tissue). Moreover, the “physiological uptake of ACE in salivary glands” value in the data set with salivary glands is listed as “normally high physiological uptake”. In data set [2] (primary tumors, ten patients), the “ACE-PET SUV, Mean ± SD” value is 5.3±2.7.

`OC[C@H]1OC(O)[C@H]([18F])[C@@H](O)[C@@H]1O` (stereo partly drawn) [FDG, ^18F-fluoro-2-deoxy-D-glucose]: in data set [3], the “FDG SUV (mean±SD)” value amounted to 4.47±3.3 and the “range of FDG SUV” value is recorded as 0.9-10.0. In addition, in data set [4], the “FDG-PET SUV, Mean ± SD” value is given as 9.6±7.0 and the “range of FDG SUV” value is given as 1.9-24.5.
